In patent US10150737B2, “Compounds for controlling arthropods” (priority 2013, dated 2018):
Read-outs that look alike come from different tables or passages of the source.

Experiments:
[1] = logP determination by HPLC on a reversed-phase column (C18); type: physicochemical; settings: for logP^a): HPLC-MS method a); for log P: HPLC-MS
[2] = tested on: Phaedon cochleariae; test: Phaedon cochleariae - spray test; type: in vivo; settings: larvae on Chinese cabbage leaf discs, after 7 days
Procedure: Solvent: 78.0 parts by weight of acetone and 1.5 parts by weight of dimethylformamide
Emulsifier: alkylaryl polyglycol ether
To produce an appropriate active ingredient formulation, 1 part by weight of active ingredient is dissolved using the specified parts by weight of solvent and made up with water containing an emulsifier concentration of 1000 ppm until the desired concentration is attained. To produce further test concentrations, the preparation is diluted with emulsifier-containing water.
Discs of Chinese cabbage leaves (Brassica pekinensis) are sprayed with an active ingredient formulation of the desired concentration and, after drying, populated with larvae of the mustard beetle (Phaedon cochleariae).
After 7 days, efficacy in % is determined. 100% means that all the beetle larvae have been killed; 0% means that no beetle larvae have been killed.

[3] = reversed-phase column (C18), Table I-T3
[4] = HPLC, C18 reversed phase, acetonitrile/water with formic acid, EEC Directive 79/831 Annex V.A8

With `Nc1c(Cl)cc(C(O)(C(F)(F)F)C(F)(F)F)cc1Cl` [2-(4-amino-3,5-dichlorphenyl)-1,1,1,3,3,3-hexafluoropropan-2-ol] as the compound, how does the logP [1] read?
The logP was 3.04.

With `Cc1cc(C(F)(C(F)(F)F)C(F)(F)F)cc(C)c1-n1cc(-c2cc(C(=O)NC3CC3)c(Cl)cc2F)cn1` [I-T3-14] as the compound, how does the “logP^a)” value [1] read?
Its value is 4.5.

And the “logP^a)” value [1, 3]?
The value was 4.5.

For `CN(C(=O)c1cc(-c2cnn(-c3ccc(C(F)(C(F)(F)F)C(F)(F)F)cc3C(F)(F)F)c2)ccc1Cl)C1CC1` [I-T3-134], which logP [1, 4] is on record?
Its logP is 4.88.

And the “logP^a)” value ([1]; reversed-phase column (C18))?
The value was 4.9.

What about the “log P” value [1, 3] of the same compound?
The value was 4.9.

With `CC[S+]([O-])c1cc(C(F)(C(F)(F)F)C(F)(F)F)cnc1-n1cc(-c2ccc(Cl)c(C(=O)NC3(C#N)CC3)c2)cn1` (centres unmarked) [I-T3-153] as the compound, how does the “logP^a)” value ([1]; reversed-phase column (C18)) read?
The value was 3.7.

And the “log P” value [1, 3]?
Its value is 3.7.

What about the efficacy ([2]; application rate 100 g/ha) of the same compound?
Its efficacy is 100%.

Which “logP^a)” value ([1]; reversed-phase column (C18)) does the source give for `CCSc1cc(C(F)(C(F)(F)F)C(F)(F)F)cnc1-n1cc(-c2ccc(Cl)c(C(=O)NC3CC3)c2)cn1` [I-T3-156, 2-Chloro-N-cyclopropyl-5-{1-[3-(ethylsulphanyl)-5-(1,1,1,2,3,3,3-heptafluoropropan-2-yl)pyridin-2-yl]-1H-pyrazol-4-yl}benzamide] here?
The value was 4.7.

And the “log P” value [1, 3]?
Its value is 4.7.

For `CC[S+]([O-])c1cc(C(F)(C(F)(F)F)C(F)(F)F)cnc1-n1cc(-c2ccc(Cl)c(C(=O)NC3CC3)c2)cn1` (centres unmarked) [I-T3-157, 2-Chloro-N-cyclopropyl-5-{1-[3-(ethylsulphinyl)-5-(1,1,1,2,3,3,3-heptafluoropropan-2-yl)pyridin-2-yl]-1H-pyrazol-4-yl}benzamide], which “logP^a)” value ([1]; reversed-phase column (C18)) is on record?
Its value is 3.8.

And the “log P” value [1, 3]?
Its value is 3.8.

For `NC(=S)C1(NC(=O)c2cc(-c3cnn(-c4c(Cl)cc(C(F)(C(F)(F)F)C(F)(F)F)cc4C(F)(F)F)c3)cnc2Cl)CC1` [I-T3-159], which “logP^a)” value ([1]; reversed-phase column (C18)) is on record?
Its value is 3.8.

What about the “log P” value [1, 3] of the same compound?
The value was 3.8.

With `CSc1cc(C(F)(C(F)(F)F)C(F)(F)F)cnc1-n1cc(-c2ccc(Cl)c(C(=O)NC3(C#N)CC3)c2)cn1` [I-T3-166] as the compound, how does the “log P” value [1, 3] read?
Its value is 4.3.

With `N#CC1(NC(=O)c2cc(-c3cnn(-c4ncc(C(F)(C(F)(F)F)C(F)(F)F)cc4SCC(F)(F)F)c3)ccc2Cl)CC1` [I-T3-171] as the compound, how does the “log P” value [1, 3] read?
Its value is 4.5.

And the efficacy ([2]; application rate 100 g/ha)?
Its efficacy is 100%.

Which “log P” value [1, 3] does the source give for `N#CC1(NC(=O)c2cc(-c3cnn(-c4c(F)c(F)c(C(F)(F)F)c(F)c4F)c3)ccc2Cl)CC1` [I-T3-188] here?
The value was 3.4.

And the efficacy ([2]; application rate 500 g/ha)?
The efficacy was 100%.

For `O=C(NC1CC1)c1cc(-c2cnn(-c3c(Cl)cc(C(F)(C(F)(F)F)C(F)(F)F)cc3C(F)F)c2)ccc1Cl` [I-T3-193], which “log P” value [1, 3] is on record?
Its value is 4.4.

For `NC(=O)C1(NC(=O)c2cc(-c3cnn(-c4c(F)c(F)c(C(F)(F)F)c(F)c4F)c3)ccc2Cl)CC1` [I-T3-194], which “log P” value [1, 3] is on record?
The value was 2.8.

With `CCS(=O)(=O)c1cc(C(F)(C(F)(F)F)C(F)(F)F)cc(Cl)c1-n1cc(-c2ccc(Cl)c(C(=O)NC3(C#N)CC3)c2)cn1` [I-T3-201] as the compound, how does the “log P” value [1, 3] read?
Its value is 4.0.

With `CCSc1cc(C(F)(C(F)(F)F)C(F)(F)F)cc(C)c1-n1cc(-c2ccc(Cl)c(C(=O)NC3(C#N)CC3)c2)cn1` [I-T3-202] as the compound, how does the “log P” value [1, 3] read?
The value was 4.5.

With `CCSc1cc(C(F)(C(F)(F)F)C(F)(F)F)cc(C)c1-n1cc(-c2ccc(Cl)c(C(=O)NC3CC3)c2)cn1` [I-T3-203] as the compound, how does the “log P” value [1, 3] read?
The value was 4.6.

Which “log P” value [1, 3] does the source give for `CN(C(=O)c1cc(-c2cnn(-c3c(Cl)cc(C(F)(C(F)(F)F)C(F)(F)F)cc3C#N)c2)cnc1Cl)C1CC1` [I-T3-204] here?
Its value is 3.9.

For `N#Cc1cc(C(F)(C(F)(F)F)C(F)(F)F)cc(Cl)c1-n1cc(-c2cnc(Cl)c(C(=O)NC3CC3)c2)cn1` [I-T3-205], which “log P” value [1, 3] is on record?
The value was 3.5.

Which “log P” value [1, 3] does the source give for `CC[S+]([O-])c1cc(C(F)(C(F)(F)F)C(F)(F)F)cc(C)c1-n1cc(-c2ccc(Cl)c(C(=O)NC3(C#N)CC3)c2)cn1` (centres unmarked) [I-T3-206] here?
Its value is 3.6.

With `N#Cc1cc(C(F)(C(F)(F)F)C(F)(F)F)cc(Cl)c1-n1cc(-c2cnc(Cl)c(C(=O)NC3(C#N)CC3)c2)cn1` [I-T3-207] as the compound, how does the “log P” value [1, 3] read?
Its value is 3.5.

With `CN(C(=O)c1cc(-c2cnn(-c3c(Cl)cc(C(F)(C(F)(F)F)C(F)(F)F)cc3OC(F)(F)F)c2)cnc1Cl)C1CC1` [I-T3-208] as the compound, how does the “log P” value [1, 3] read?
The value was 4.6.

With `CCS(=O)(=O)c1cc(C(F)(C(F)(F)F)C(F)(F)F)cc(C)c1-n1cc(-c2ccc(Cl)c(C(=O)NC3(C#N)CC3)c2)cn1` [I-T3-209] as the compound, how does the “log P” value [1, 3] read?
Its value is 3.8.

With `CCS(=O)(=O)c1cc(C(F)(C(F)(F)F)C(F)(F)F)cc(C)c1-n1cc(-c2ccc(Cl)c(C(=O)NC3CC3)c2)cn1` [I-T3-210] as the compound, how does the “log P” value [1, 3] read?
The value was 3.9.

Which “log P” value [1, 3] does the source give for `CCOc1cc(C(F)(C(F)(F)F)C(F)(F)F)cc(OCC)c1-n1cc(-c2cnc(Cl)c(C(=O)N(C)C3CC3)c2)cn1` [I-T3-211] here?
The value was 4.7.

For `N#CC1(NC(=O)c2cc(-c3cnn(-c4c(Cl)cc(C(F)(C(F)(F)F)C(F)(F)F)cc4I)c3)ccc2Cl)CC1` [I-T3-212], which “log P” value [1, 3] is on record?
Its value is 4.3.

With `O=C(NC1CC1)c1cc(-c2cnn(-c3c(Cl)cc(C(F)(C(F)(F)F)C(F)(F)F)cc3I)c2)ccc1Cl` [I-T3-213] as the compound, how does the “log P” value [1, 3] read?
Its value is 4.4.

With `O=C(NC1CC1)c1cc(-c2cnn(-c3c(Cl)cc(C(F)(C(F)(F)F)C(F)(F)F)cc3OC(F)F)c2)ccc1Cl` [I-T3-214] as the compound, how does the “log P” value [1, 3] read?
The value was 4.3.

For `N#CC1(NC(=O)c2cc(-c3cnn(-c4c(Cl)cc(C(F)(C(F)(F)F)C(F)(F)F)cc4OC(F)F)c3)ccc2Cl)CC1` [I-T3-215], which “log P” value [1, 3] is on record?
Its value is 4.1.

Which “log P” value [1, 3] does the source give for `CN(C(=O)c1cc(-c2cnn(-c3c(Cl)cc(C(F)(C(F)(F)F)C(F)(F)F)cc3OC(F)F)c2)ccc1Cl)C1CC1` [I-T3-216] here?
Its value is 4.7.

For `CN(C(=O)c1cc(-c2cnn(-c3c(Cl)cc(C(F)(C(F)(F)F)C(F)(F)F)cc3OC(F)F)c2)cnc1Cl)C1CC1` [I-T3-217], which “log P” value [1, 3] is on record?
The value was 4.2.

For `N#CC1(NC(=O)c2cc(-c3cnn(-c4c(Cl)cc(C(F)(C(F)(F)F)C(F)(F)F)cc4OC(F)F)c3)cnc2Cl)CC1` [I-T3-218], which “log P” value [1, 3] is on record?
The value was 3.7.

For `CN(C(=O)c1cc(-c2cnn(-c3c(Cl)cc(C(F)(C(F)(F)F)C(F)(F)F)cc3OC(F)(F)F)c2)ccc1Cl)C1CC1` [I-T3-219], which “log P” value [1, 3] is on record?
The value was 5.1.

With `CN(C(=O)c1cc(-c2cnn(-c3c(Cl)cc(C(O)(C(F)(F)F)C(F)(F)F)cc3Cl)c2)cnc1Cl)C1CC1` [I-T3-220] as the compound, how does the “log P” value [1, 3] read?
Its value is 3.4.

What about the efficacy ([2]; application rate 100 g/ha) of the same compound?
Its efficacy is 100%.

With `O=C(NC1CC1)c1cc(-c2cnn(-c3c(I)cc(C(F)(C(F)(F)F)C(F)(F)F)cc3OC(F)(F)F)c2)ccc1Cl` [I-T3-224] as the compound, how does the “log P” value [1, 3] read?
The value was 4.7.

With `CN(C(=O)c1cc(-c2cnn(-c3c(I)cc(C(F)(C(F)(F)F)C(F)(F)F)cc3OC(F)(F)F)c2)ccc1Cl)C1CC1` [I-T3-225] as the compound, how does the “log P” value [1, 3] read?
Its value is 5.2.

Which “log P” value [1, 3] does the source give for `N#CC1(NC(=O)c2cc(-c3cnn(-c4c(I)cc(C(F)(C(F)(F)F)C(F)(F)F)cc4OC(F)(F)F)c3)ccc2Cl)CC1` [I-T3-226] here?
Its value is 4.6.

For `O=C(NC1CC1)c1cc(-c2cnn(-c3c(I)cc(C(F)(C(F)(F)F)C(F)(F)F)cc3C(F)(F)F)c2)ccc1Cl` [I-T3-227], which “log P” value [1, 3] is on record?
Its value is 4.5.

With `N#CC1(NC(=O)c2cc(-c3cnn(-c4c(I)cc(C(F)(C(F)(F)F)C(F)(F)F)cc4C(F)(F)F)c3)ccc2Cl)CC1` [I-T3-228] as the compound, how does the “log P” value [1, 3] read?
Its value is 4.4.

With `CN(C(=O)c1cc(-c2cnn(-c3c(I)cc(C(F)(C(F)(F)F)C(F)(F)F)cc3C(F)(F)F)c2)ccc1Cl)C1CC1` [I-T3-229] as the compound, how does the “log P” value [1, 3] read?
Its value is 5.1.

Which logP [1, 4] does the source give for `Cc1cc(C(F)(C(F)(F)F)C(F)(F)F)cc(C)c1-n1ccc(-c2ccc(Cl)c(C(=O)NC3(C#N)CC3)c2)c1` [I-T46-1] here?
The logP was 4.90.
